This is an account of results in ChEMBL document CHEMBL2390858, “Design, synthesis and anti-tuberculosis activity of 1-adamantyl-3-heteroaryl ureas with improved in vitro pharmacokinetic properties” (Bioorg Med Chem, 2013).

Molecules are shown by their SMILES. Values after ≈ are worked out from the molar mass of the structure shown. Bounds are passed on as bounds.

Data set [1] deals with T1, Bifunctional epoxide hydrolase 2 (Homo sapiens, UniProt P34913).
T1 sequence (P34913 whole entry): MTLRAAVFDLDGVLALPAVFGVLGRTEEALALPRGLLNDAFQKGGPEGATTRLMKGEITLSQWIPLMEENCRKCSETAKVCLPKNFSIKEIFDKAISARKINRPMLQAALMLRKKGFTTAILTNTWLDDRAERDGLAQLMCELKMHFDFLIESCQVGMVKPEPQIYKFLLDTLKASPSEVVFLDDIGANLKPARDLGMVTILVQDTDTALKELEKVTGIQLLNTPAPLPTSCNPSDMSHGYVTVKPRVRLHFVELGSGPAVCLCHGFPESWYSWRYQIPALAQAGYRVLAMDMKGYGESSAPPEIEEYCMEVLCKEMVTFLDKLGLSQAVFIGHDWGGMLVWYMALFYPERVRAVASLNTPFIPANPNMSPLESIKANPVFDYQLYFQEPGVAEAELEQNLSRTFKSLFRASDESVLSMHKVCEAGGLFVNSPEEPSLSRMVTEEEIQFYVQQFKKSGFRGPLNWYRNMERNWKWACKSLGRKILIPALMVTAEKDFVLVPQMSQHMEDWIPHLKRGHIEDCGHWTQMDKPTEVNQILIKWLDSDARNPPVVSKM

The conditions of data set [2]: buffer, 18 h, pH 7.4.
The subject of data set [3] is Pseudomonas aeruginosa. In words: microbe, parasite or virus in culture.
Data set [4] concerns Proteus vulgaris. The data set can be described thus: microbe, parasite or virus in culture.
The subject of data set [5] is Proteus mirabilis. The data set can be described thus: microbe, parasite or virus in culture.
Data set [6] has as its system Klebsiella pneumoniae. In words: microbe, parasite or virus in culture.
In data set [7] the test system is Escherichia coli. The data set can be described thus: microbe, parasite or virus in culture. Particulars: K-12.
The subject of data set [8] is Burkholderia cepacia. The data set can be described thus: microbe, parasite or virus in culture.
Data set [9] relates to Bacillus subtilis. In words: microbe, parasite or virus in culture.
Data set [10] has as its system Acinetobacter. The data set can be described thus: microbe, parasite or virus in culture.
Data set [11] concerns Streptococcus pneumoniae. The data set can be described thus: microbe, parasite or virus in culture.
In data set [12] the test system is Streptococcus pyogenes. The data set can be described thus: microbe, parasite or virus in culture.
Data set [13] relates to Staphylococcus aureus. The data set can be described thus: microbe, parasite or virus in culture. As to conditions: NRS70.
Data set [14] deals with Staphylococcus aureus. The data set can be described thus: microbe, parasite or virus in culture. Particulars: ATCC 29213.
Data set [15] relates to Enterococcus faecalis. In words: microbe, parasite or virus in culture.
The subject of data set [16] is Bacillus anthracis. The data set can be described thus: microbe, parasite or virus in culture. As to conditions: Sterne.
Data set [17] relates to Mycobacterium tuberculosis. In words: microbe, parasite or virus in culture. Particulars: H37Rv, 168 h.

A word on the IC50: it is the concentration needed to halve the response being measured. Low values mean higher potency, high ones lower potency. The term solubility denotes the dissolved amount per volume that the medium holds. High values mean much dissolved substance, low ones little dissolved substance. In data set [1], `Cc1nnc(NC(=O)NC23CC4CC(CC(C4)C2)C3)o1` returned an IC50 of 595 nM. In [2], this molecule yielded a solubility of 9.77 µg/mL (≈ 35.4 µM). Also, the MIC in data set [3], in data set [4], in data set [5], in data set [6], in data set [7] and in [8] was more than 200 µg/mL in each case. The MIC in data set [9], in [10], in data set [11], in [12], in data set [13] and in [14] was more than 200 µg/mL throughout. In addition, the MIC is more than 200 µg/mL in data set [15], more than 200 µg/mL in data set [16] and 25 µg/mL (≈ 90.5 µM) in [17].
Consider `O=C(Nc1nnc(C2CC2)o1)NC12CC3CC(CC(C3)C1)C2`, for which half-maximal inhibition in [1] (IC50) required 503 nM. Also, in data set [2], the solubility stood at 38.3 µg/mL (≈ 127 µM). In addition, the MIC in data set [3], in data set [4], in [5], in data set [6], in [7] and in [8] was more than 200 µg/mL each time. Also, the MIC was 100 µg/mL (≈ 331 µM) in data set [9]; more than 200 µg/mL in data set [10]; more than 200 µg/mL in data set [11]; more than 200 µg/mL in [12]; more than 200 µg/mL in data set [13]; more than 200 µg/mL in [14]. The MIC is more than 200 µg/mL in data set [15], 50 µg/mL (≈ 165 µM) in [16] and 12.5 µg/mL (≈ 41.3 µM) in [17].
`O=C(Nc1cccnc1)NC12CC3CC(CC(C3)C1)C2` showed an IC50 in [1] of 113 nM. In data set [2], this molecule returned a solubility of 6.7 µg/mL (≈ 24.7 µM). For the same molecule, the MIC in data set [3], in [4], in data set [5], in data set [6], in data set [7] and in data set [8] was more than 200 µg/mL in each case. Besides, the MIC in [9], in data set [10], in [11], in data set [12], in data set [13] and in data set [14] was more than 200 µg/mL in each case. For the same molecule, the MIC in data set [15] is more than 200 µg/mL; in data set [16], more than 200 µg/mL; in data set [17], 12.5 µg/mL (≈ 46.1 µM).
Take `O=C(Nc1ncccn1)NC12CC3CC(CC(C3)C1)C2`: inhibition in data set [1] was half-maximal at 24000 nM (IC50). The solubility in data set [2] worked out at 6.9 µg/mL (≈ 25.3 µM). For the same molecule, the MIC in data set [3], in data set [4], in data set [5], in data set [6], in data set [7] and in data set [8] was more than 200 µg/mL each time. Besides, the MIC in data set [9], in data set [10], in [11], in data set [12], in data set [13] and in data set [14] was more than 200 µg/mL each time. The MIC in data set [15] is more than 200 µg/mL; in data set [16], more than 200 µg/mL; in data set [17] it was 200 µg/mL (≈ 734 µM).
Regarding `O=C(Nc1ccncn1)NC12CC3CC(CC(C3)C1)C2`, the IC50 in data set [1] is 775 nM. This molecule displayed a solubility in [2] of 15.5 µg/mL (≈ 56.9 µM). In addition, the MIC in data set [3] is more than 200 µg/mL; in data set [4], more than 200 µg/mL; in [5], more than 200 µg/mL; in [6] it was more than 200 µg/mL; in data set [7], more than 200 µg/mL; in [8] it was 200 µg/mL (≈ 734 µM). In addition, the MIC in [9] is 50 µg/mL (≈ 184 µM); in data set [10], more than 200 µg/mL; in [11], 50 µg/mL (≈ 184 µM); in data set [12], more than 200 µg/mL; in data set [13] it was more than 200 µg/mL; in data set [14], 100 µg/mL (≈ 367 µM). Besides, the MIC is more than 200 µg/mL in data set [15], more than 200 µg/mL in data set [16] and 25 µg/mL (≈ 91.8 µM) in data set [17].
For the molecule `O=C(Nc1ncncn1)NC12CC3CC(CC(C3)C1)C2`, 79 nM corresponded to half-maximal inhibition in [1] (IC50). Moreover, the solubility in data set [2] was 7.2 µg/mL (≈ 26.3 µM). The MIC in [3], in data set [4], in data set [5], in data set [6], in data set [7] and in [8] was more than 200 µg/mL throughout. The MIC in data set [9], in data set [10], in [11], in data set [12], in data set [13] and in [14] was more than 200 µg/mL in each case. Moreover, the MIC is more than 200 µg/mL in data set [15], more than 200 µg/mL in data set [16] and 125 µg/mL (≈ 457 µM) in data set [17].
Molecule `O=C(Nc1nccnn1)NC12CC3CC(CC(C3)C1)C2` registered an IC50 in data set [1] of 1010 nM. This molecule yielded a solubility in data set [2] of 6.8 µg/mL (≈ 24.9 µM). In addition, the MIC in data set [3], in data set [4], in data set [5], in data set [6], in data set [7] and in data set [8] was more than 200 µg/mL each time. The MIC in data set [9], in [10], in data set [11], in data set [12], in data set [13] and in data set [14] was more than 200 µg/mL throughout. Also, the MIC in [15] is more than 200 µg/mL; in data set [16], more than 200 µg/mL; in data set [17], 200 µg/mL (≈ 732 µM).
In turn, `O=C(Nc1ccon1)NC12CC3CC(CC(C3)C1)C2` had an IC50 in data set [1] of 46 nM. This molecule also yielded a solubility in data set [2] of 20.3 µg/mL (≈ 77.7 µM). Further, the MIC was more than 200 µg/mL in data set [3]; more than 200 µg/mL in data set [4]; more than 200 µg/mL in data set [5]; more than 200 µg/mL in data set [6]; more than 200 µg/mL in data set [7]; 100 µg/mL (≈ 383 µM) in data set [8]. The MIC in data set [9], in data set [10], in data set [11], in data set [12], in data set [13] and in [14] was more than 200 µg/mL in each case. For the same molecule, the MIC in data set [15] is 100 µg/mL (≈ 383 µM); in data set [16], more than 200 µg/mL; in data set [17], 50 µg/mL (≈ 191 µM).
As for `Cc1cc(NC(=O)NC23CC4CC(CC(C4)C2)C3)no1`, in [1], it took 136 nM to reach half-maximal inhibition (IC50). Also, the solubility in data set [2] worked out at 25.9 µg/mL (≈ 94.1 µM). The MIC in data set [3], in data set [4], in data set [5], in data set [6], in data set [7] and in [8] was more than 200 µg/mL in each case. Further, the MIC in data set [9] was 200 µg/mL (≈ 726 µM); in [10], more than 200 µg/mL; in data set [11] it was more than 200 µg/mL; in data set [12] it was more than 200 µg/mL; in [13], more than 200 µg/mL; in data set [14], 200 µg/mL (≈ 726 µM). Moreover, the MIC was more than 200 µg/mL in [15], more than 200 µg/mL in data set [16] and 27 µg/mL (≈ 98.1 µM) in [17].
Regarding `Cc1cc(CNC(=O)NC23CC4CC(CC(C4)C2)C3)no1`, in data set [1], half-maximal inhibition (IC50) required 1550 nM. Also, the solubility in [2] came to 3 µg/mL (≈ 10.4 µM). Moreover, the MIC in [3], in data set [4], in data set [5], in [6], in data set [7] and in data set [8] was more than 200 µg/mL throughout. The MIC in data set [9], in [10], in data set [11], in [12], in data set [13] and in data set [14] was more than 200 µg/mL each time. Besides, the figures for the MIC in data set [15], in [16] and in [17] were more than 200 µg/mL, more than 200 µg/mL and more than 50 µg/mL, respectively.
`Cc1cc(NC(=O)NC23CC4CC(CC(C4)C2)C3)on1` gave an IC50 in [1] of 117 nM. This molecule also gave a solubility in [2] of 5.5 µg/mL (≈ 20 µM). Besides, the MIC in data set [3] is more than 200 µg/mL; in data set [4], more than 200 µg/mL; in data set [5], more than 200 µg/mL; in data set [6], more than 200 µg/mL; in data set [7], 200 µg/mL (≈ 726 µM); in data set [8] it was 100 µg/mL (≈ 363 µM). In addition, the MIC in data set [9] was more than 200 µg/mL; in data set [10] it was more than 200 µg/mL; in data set [11] it was more than 200 µg/mL; in data set [12], more than 200 µg/mL; in data set [13], more than 200 µg/mL; in data set [14] it was 200 µg/mL (≈ 726 µM). Also, the MIC in data set [15] is 100 µg/mL (≈ 363 µM); in data set [16], more than 200 µg/mL; in data set [17], 12.5 µg/mL (≈ 45.4 µM).
In the case of `Cc1noc(NC(=O)NC23CC4CC(CC(C4)C2)C3)c1C#N`, in [1], the IC50 is 25 nM. The solubility in data set [2] came to 1.2 µg/mL (≈ 4 µM). Also, the MIC is more than 200 µg/mL in data set [3]; more than 200 µg/mL in [4]; more than 200 µg/mL in [5]; more than 200 µg/mL in [6]; more than 200 µg/mL in data set [7]; 200 µg/mL (≈ 666 µM) in data set [8]. Moreover, the MIC in data set [9], in data set [10], in data set [11], in data set [12], in [13] and in data set [14] was more than 200 µg/mL in each case. Also, the MIC in data set [15] was 200 µg/mL (≈ 666 µM); in data set [16] it was more than 200 µg/mL; in data set [17], 100 µg/mL (≈ 333 µM).
